# Laboratory results from patent US8680012B2, “4-phenyl-pyrane-3,5-diones,4-phenyl-thiopyrane-3,6-diones and cyclohexanetriones as novel herbicides” (Syngenta Crop Protection LLC, priority 2006, dated 2014).
# Key:
# Format in all cases: in vivo
# [1] = system: Echinochloa crus-galli (ECHCG); experiment: Example B post-emergence herbicidal activity, glasshouse pot test; conditions: 312 h, rate 1000 g/ha, evaluated after 13 days, read-out: Post-emergence activity ECHCG (100=total damage to plant; 0=no damage to plant)
# How it was run: (§1)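 Compound sprayed in acetone/water (50:50) plus 0.5% Tween 20 onto potted soil one day post-sowing, or onto seedlings after 8 days. Scored 0–100 for damage after 13 days.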
# [2] = system: Amaranthus retroflexus (AMARE); experiment: as above; conditions: 312 h, rate 1000 g/ha, evaluated after 13 days, read-out: Post-emergence activity AMARE (100=total damage to plant; 0=no damage to plant)
# How it was run: as §1
# Solanum nigrum (SOLNI) [3] = experiment: as above; conditions: 312 h, rate 1000 g/ha, evaluated after 13 days, read-out: Post-emergence activity SOLNI (100=total damage to plant; 0=no damage to plant)
# How it was run: as §1
# Setaria faberi (SETFA) [4] = experiment: as above; conditions: 312 h, rate 1000 g/ha, evaluated after 13 days, read-out: Post-emergence activity SETFA (100=total damage to plant; 0=no damage to plant)
# How it was run: as §1
# [5] = system: Alopecurus myosuroides (ALOMY); experiment: as above; conditions: 312 h, rate 1000 g/ha, evaluated after 13 days, read-out: Post-emergence activity ALOMY (100=total damage to plant; 0=no damage to plant)
# How it was run: as §1
# Avena fatua (AVEFA) [6] = experiment: as above; conditions: 312 h, rate 1000 g/ha, evaluated after 13 days, read-out: Post-emergence activity AVEFA (100=total damage to plant; 0=no damage to plant)
# How it was run: as §1
# [7] = system: Echinochloa crus-galli (ECHCG); experiment: Example B pre-emergence herbicidal activity, glasshouse pot test; conditions: 312 h, rate 1000 g/ha, evaluated after 13 days, read-out: Pre-emergence activity ECHCG (100=total damage to plant; 0=no damage to plant)
# How it was run: as §1
# [8] = system: Amaranthus retroflexus (AMARE); experiment: as above; conditions: 312 h, rate 1000 g/ha, evaluated after 13 days, read-out: Pre-emergence activity AMARE (100=total damage to plant; 0=no damage to plant)
# How it was run: as §1
# Solanum nigrum (SOLNI) [9] = experiment: as above; conditions: 312 h, rate 1000 g/ha, evaluated after 13 days, read-out: Pre-emergence activity SOLNI (100=total damage to plant; 0=no damage to plant)
# How it was run: as §1
# Setaria faberi (SETFA) [10] = experiment: as above; conditions: 312 h, rate 1000 g/ha, evaluated after 13 days, read-out: Pre-emergence activity SETFA (100=total damage to plant; 0=no damage to plant)
# How it was run: as §1
# [11] = system: Alopecurus myosuroides (ALOMY); experiment: as above; conditions: 312 h, rate 1000 g/ha, evaluated after 13 days, read-out: Pre-emergence activity ALOMY (100=total damage to plant; 0=no damage to plant)
# How it was run: as §1
# Avena fatua (AVEFA) [12] = experiment: as above; conditions: 312 h, rate 1000 g/ha, evaluated after 13 days, read-out: Pre-emergence activity AVEFA (100=total damage to plant; 0=no damage to plant)
# How it was run: as §1
Structure (SMILES),pest or weed control at 1000 g/ha [1],pest or weed control at 1000 g/ha [2],pest or weed control at 1000 g/ha (Solanum nigrum (SOLNI) [3]),pest or weed control at 1000 g/ha (Setaria faberi (SETFA) [4]),pest or weed control at 1000 g/ha [5],pest or weed control at 1000 g/ha (Avena fatua (AVEFA) [6]),pest or weed control at 1000 g/ha [7],pest or weed control at 1000 g/ha [8],pest or weed control at 1000 g/ha (Solanum nigrum (SOLNI) [9]),pest or weed control at 1000 g/ha (Setaria faberi (SETFA) [10]),pest or weed control at 1000 g/ha [11],pest or weed control at 1000 g/ha (Avena fatua (AVEFA) [12])
"CCc1ccc(-c2ccc(Cl)cc2)cc1C1=C(O)C(C)(C)OC(C)C1=O (single isomer, unassigned) [Compound A-26]",100%,100%,50%,100%,100%,100%,100%,0%,0%,100%,80%,80%
"CCc1ccc(-c2ccc(Cl)cc2)cc1C1=C(O)[C@@]2(C)CC[C@H](O2)C1=O (single isomer, unassigned) [Compound A-29]",100%,40%,60%,100%,100%,100%,100%,0%,0%,100%,90%,80%
"Cc1ccc(-c2ccc(Cl)cc2)cc1C1=C(O)[C@@]2(C)CC[C@H](O2)C1=O (single isomer, unassigned) [Compound A-30]",100%,70%,70%,100%,90%,100%,100%,0%,0%,100%,80%,70%
"Cc1ccc(-c2ccc(Cl)cc2)cc1C1=C(O)C2(CCOCC2)OCC1=O (single isomer, unassigned) [Compound A-37]",90%,0%,70%,80%,70%,30%,30%,0%,0%,20%,40%,20%
Cc1ccc(-c2cccc(C(F)(F)F)c2)cc1C1=C(O)C(C)(C)OC(C)(C)C1=O [Compound A-15],50%,90%,10%,10%,10%,20%,100%,100%,100%,50%,50%,50%
Cc1ccc(-c2ccc(Oc3ccccc3)cc2)cc1C1=C(O)C(C)(C)OC(C)(C)C1=O [Compound A-16],100%,40%,10%,100%,30%,30%,100%,0%,0%,100%,30%,20%
Cc1ccc(-c2ccc(C#N)cc2)cc1C1=C(O)C(C)(C)OC(C)(C)C1=O [Compound A-20],100%,20%,80%,100%,90%,90%,100%,0%,40%,100%,90%,60%
Cc1ccc(-c2ccc(C(C)(C)C)cc2)cc1C1=C(O)C(C)(C)OC(C)(C)C1=O [Compound A-21],90%,20%,20%,60%,40%,60%,90%,60%,50%,100%,100%,50%
Cc1ccc(-c2cccc(C#N)c2)cc1C1=C(O)C(C)(C)OC(C)(C)C1=O [Compound A-22],80%,0%,90%,20%,30%,0%,90%,30%,60%,40%,40%,20%
Cc1ccc(-c2ccc(F)c(F)c2)cc1C1=C(O)C(C)(C)OC(C)(C)C1=O [Compound A-24],100%,90%,70%,100%,100%,80%,100%,20%,20%,90%,80%,60%
Cc1ccc(-c2cc(F)cc(F)c2)cc1C1=C(O)C(C)(C)OC(C)(C)C1=O [Compound A-25],90%,100%,70%,70%,70%,0%,80%,0%,0%,20%,70%,30%
Cc1ccc(-c2ccc(F)cc2F)cc1C1=C(O)C(C)(C)OC(C)(C)C1=O [Compound A-27],100%,100%,50%,100%,80%,80%,100%,10%,20%,90%,80%,60%
Cc1ccc(-c2cc(F)c(F)c(F)c2)cc1C1=C(O)C(C)(C)OC(C)(C)C1=O [Compound A-31],100%,0%,60%,100%,100%,90%,100%,0%,0%,100%,50%,0%
